According to ChEMBL document CHEMBL1141481, “Probing the structural and topological requirements for CCR2 antagonism: holographic QSAR for indolopiperidine derivatives” (Bioorg Med Chem Lett, 2008):
Values joined by “and” are separate entries in the source; they are usually repeats but may differ in a detail not shown here. Identical values can stand only once.

These compounds were tested against C-C chemokine receptor type 2 (Homo sapiens, UniProt P41597) (assay: Antagonist activity at human CCR2 receptor).
Chain of C-C chemokine receptor type 2 (P41597 whole entry): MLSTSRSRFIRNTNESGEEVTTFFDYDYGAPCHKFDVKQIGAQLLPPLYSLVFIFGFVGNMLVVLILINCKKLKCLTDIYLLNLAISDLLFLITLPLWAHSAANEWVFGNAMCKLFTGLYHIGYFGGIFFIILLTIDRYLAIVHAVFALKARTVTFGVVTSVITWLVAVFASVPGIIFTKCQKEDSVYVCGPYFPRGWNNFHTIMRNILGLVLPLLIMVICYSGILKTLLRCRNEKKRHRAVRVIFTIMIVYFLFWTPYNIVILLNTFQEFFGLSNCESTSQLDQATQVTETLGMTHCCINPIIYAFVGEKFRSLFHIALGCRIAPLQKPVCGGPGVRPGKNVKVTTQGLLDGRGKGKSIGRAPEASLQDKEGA

Row | Structure (SMILES) | Ki
1 | O=C(NCCCCCN1CCC(c2c[nH]c3ccccc23)CC1)Nc1ccc(Cl)c(Cl)c1 | 1620 nM
2 | O=C(Cc1ccc(Cl)c(Cl)c1)NCCCCCN1CCC(c2c[nH]c3ccccc23)CC1 | 4470 nM
3 | O=C(/C=C/c1ccc(-c2ccccc2)cc1)NCCCCCN1CCC(c2c[nH]c3ccccc23)CC1 | 1480 nM
4 | Cc1ccc(/C=C/C(=O)NCCCCCN2CCC(c3c[nH]c4ccccc34)CC2)cc1 | 562 nM
5 | O=C(/C=C/c1ccc(Cl)c(Cl)c1)NCCCCCN1CCC(c2c[nH]c3ccccc23)CC1 | 427 nM
6 | O=C(/C=C/c1ccc(Cl)c(Cl)c1)N[C@H]1CC[C@H](CN2CCC(c3c[nH]c4ccccc34)CC2)CC1 | 631 nM and 646 nM
7 | O=C(NCCCCCN1CCC(c2c[nH]c3ccccc23)CC1)c1ccc(Br)cc1 | 7240 nM
8 | CC(=O)Nc1ccc(/C=C/C(=O)NCCCCCN2CCC(c3c[nH]c4ccccc34)CC2)cc1 | 12900 nM
9 | O=C(/C=C/c1ccc(I)cc1)NCCCCCN1CCC(c2c[nH]c3ccccc23)CC1 | 468 nM
10 | CCCCc1ccc(/C=C/C(=O)NCCCCCN2CCC(c3c[nH]c4ccccc34)CC2)cc1 | 1700 nM
11 | O=C(/C=C/c1ccc(Br)cc1)NCCCCCN1CCC(c2c[nH]c3ccccc23)CC1 | 355 nM
12 | O=C(NCCCCCN1CCC(c2c[nH]c3ccccc23)CC1)c1ccc(-c2ccccc2)cc1 | 5500 nM
13 | O=C(/C=C/c1ccccc1Cl)NCCCCCN1CCC(c2c[nH]c3ccccc23)CC1 | 4470 nM
